In US10280174B2, “Salt of fused pyrimidine compound and crystal thereof” (TAIHO PHARMACEUTICAL CO., LTD., priority 2015, dated 2019):

Tests used:
[1] = Blood concentration measurement test after oral administration; details: mice
Description: These administration solutions were orally administered to mice (Balb/cA) which had been bred under a feeding condition, at a dose of 10 mL per 1 kg body weight, with a sonde for oral administration. After the administration, the mice were returned to a cage for mice and conditions were checked. Inside the cage was provided with a condition where water and food were accessible ad libitum. After 0.25, 0.5, 1, 2, 4 and 6 hours from the administration, the mice were anesthetized with isoflurane, and 60 μL of blood was collected from orbital sinus with a capillary blood collection tube.
The collected blood was ice cooled, and blood plasma was separated by a centrifugal operation. The mice after the blood collection was returned to an animal breeding cage, and conditions after recovery from the anesthesia were checked. When the last blood collection was finished, the mice were euthanized by cervical dislocation, after a level check of isoflurane anesthesia.
AUC0-6 hr, Cmax and Tmax were calculated by linear-log trapezoid method with Phoenix WinNonlin (v6.3.0) which is a software manufactured by Pharsight Corporation, from a concentration of Compound A in each blood plasma measured by MRM method with LC-MS/MS.

[2] = target: recombinant human BTK protein (Homo sapiens (Human), UniProt Q06187); assay: Measurement of BTK inhibitory activity (in vitro); assay type: biochemical; details: ATP 45 μM, FL-Peptide 2 substrate
Source text: In a condition set for a method of measuring inhibitory activity in vitro of the compounds against BTK kinase activity, FL-Peptide 2 was used as a substrate, since it was described in a price list of LabChip (Registered trademark) series sample consumables of PerkinElmer Co., Ltd. that FL-Peptide 2 corresponded to a substrate peptide in a measurement of BTK kinase activity. The refined recombinant human BTK protein used in the test was purchased from Carna Biosciences, Inc.
With regard to the measurement of the inhibitory activity of the compounds, firstly, monofumarate of Compound A was diluted stepwise with dimethyl sulfoxide (DMSO). Subsequently, BTK protein, a substrate peptide (final concentration was 1 μM), magnesium chloride (final concentration was 10 mM), ATP (final concentration was 45 μM), and a DMSO solution of the test compounds (final concentration of DMSO was 5%) were added to a buffer solution for kinase reaction (20 mM HEPES (pH 7.5), 2 mM dithiotheitol, 0.01% Triton X-100), and after the solution was incubated for 40 minutes at 25° C., a kinase reaction was carried out. […] Finally, a substrate peptide that was not phosphorylated (S) and a phosphorylated peptide (P) were separated and detected by microchannel capillary electrophoresis with a LabChip EZ Reader II (PerkinElmer, Inc.). […]

[3] = Moisture absorption/desorption test; assay type: physicochemical; details: for Weight change ratio, Adsorption / Weight change ratio, Desorption: 25° C.
Description: Moisture absorption/desorption test was carried out with respect to Compound A, monofumarate of Compound A, hemifumarate of Compound A, hemitartrate of Compound A and monophosphate of Compound A, to research the presence or absence of the characteristic of channel hydrate.
In the moisture absorption/desorption test, measurements were carried out according to the following conditions.
A dedicated quartz holder was filled with about from 5 to 10 mg of sample, and a weight of the sample at each humidity was measured and recorded in a continuous manner under the following conditions. Handling of the devices including data processing was based on the method and the process indicated in each device.
Device: VTI SA+ (manufactured by TA Instruments Inc.)
Drying temperature: 60° C.
Temperature rising speed: 1° C./min.
Equilibrium in drying: It is confirmed that no reduction of 0.01 wt % occurs in 5 minutes, in a range not exceeding 300 minutes.
Temperature for measurement: 25° C.
Equilibrium in humidification: It is confirmed that no increase of 0.01 wt % occurs in 5 minutes, in a range not exceeding 120 minutes.
Relative humidity program: Raised by 5% RH from 5% RH to 95% RH, and lowered by 5% RH from 95% RH to 5% RH.

[4] = Solid stability test (acceleration test), 40° C./75% RH; assay type: physicochemical; details: for total mass of analogous substance: 4 weeks
Description: Solid stability was measured under the following conditions, with respect to monofumarate of Compound A, hemifumarate of Compound A, hemitartrate of Compound A and monophosphate of Compound A which were obtained in the Examples and the Reference Examples, when they were stored for 2 weeks or 4 weeks at 40° C./75% RH (sealed condition and opened condition).
Storage condition: 40° C./75% RH (Sealed and Opened) (Opened refers to a condition where a glass container has the lid removed, and is covered with a KimWipe).
Points of measurement: 2 weeks and 4 weeks
(§1) Storage amount: About 30 mg
(§2) Storage container: Brown glass container
(§3) Method of preparing sample solution: Sample was dissolved in 50% acetonitrile such that a concentration of the sample would be 0.4 mg/mL.
Mass of analogous substance in the sample solution was measured by HPLC analysis. Handling of the devices including data processing was based on the method and the process indicated in each device. (Device: Shimadzu Corporation SIL-HTc/LC-20AB)
Column: InertSustein C18, 4.6×150 mm, 3 μm, manufactured by GL Sciences Inc.
MS detection: ESI positive
Column temperature: 40° C.
Column flow rate: 1.0 mL/min
Mobile phase: A; 10 mmol/L phosphate buffer (pH 6.0): Acetonitrile mixed solution (17:3), B; Acetonitrile
Amount of injection: 5 μL
In the Table, A, B and C refer to percentages of the total mass of analogous substance of less than 0.1%, 0.1% or more and less than 0.5%, and 0.5% or more, respectively. Incidentally, those marked with * were measured at 2 weeks' time and the others were measured at 4 weeks' time.

[5] = Solid stability test (severe test), 60° C.; assay type: physicochemical
Description: Solid stability was measured under the following conditions, with respect to monofumarate of Compound A, hemitartrate of Compound A and monophosphate of Compound A which were obtained in the Examples and the Reference Examples, when they were stored for 2 weeks or 4 weeks at 60° C.
Storage condition: 60° C. (Sealed)
Point of measurement: 2 weeks and 4 weeks
as §1, §2, §3
In the Table, A and B refer to percentages of the total mass of analogous substance of less than 0.1%, and 0.1% or more and less than 0.5%, respectively. Incidentally, the value marked with * was measured at 2 weeks and the others were measured at 4 weeks.

[6] = test system: recombinant human EGFR protein / BTK; assay: BTK inhibition selectivity compared with EGFR kinase inhibitory activity (in vitro); assay type: biochemical
Description: 1) Measurement of BTK Inhibitory Activity
2) Measurement of EGFR Inhibitory Activity
Therefore, a biotinated peptide (biotin-[…]) was produced by referring to the amino acid sequence of the peptide. The purified recombinant human EGFR protein used in the test was purchased from Carna Biosciences, Inc.
The reaction was terminated by adding EDTA thereto so as to obtain a final concentration of 24 mM. Subsequently, a detection liquid containing Eu-labeled anti-phosphotyrosine antibody PT66 (PerkinElmer, Inc.) and […] APC-SA (PerkinElmer, Inc.) was added thereto, and the system was left to stand for 2 hours or longer at room temperature. […] 3) BTK Inhibition Selectivity

[7] = 50 mg/kg in terms of Compound A, 0.5% HPMC suspension, plasma Compound A

Chain of recombinant human BTK protein (Q06187 whole entry): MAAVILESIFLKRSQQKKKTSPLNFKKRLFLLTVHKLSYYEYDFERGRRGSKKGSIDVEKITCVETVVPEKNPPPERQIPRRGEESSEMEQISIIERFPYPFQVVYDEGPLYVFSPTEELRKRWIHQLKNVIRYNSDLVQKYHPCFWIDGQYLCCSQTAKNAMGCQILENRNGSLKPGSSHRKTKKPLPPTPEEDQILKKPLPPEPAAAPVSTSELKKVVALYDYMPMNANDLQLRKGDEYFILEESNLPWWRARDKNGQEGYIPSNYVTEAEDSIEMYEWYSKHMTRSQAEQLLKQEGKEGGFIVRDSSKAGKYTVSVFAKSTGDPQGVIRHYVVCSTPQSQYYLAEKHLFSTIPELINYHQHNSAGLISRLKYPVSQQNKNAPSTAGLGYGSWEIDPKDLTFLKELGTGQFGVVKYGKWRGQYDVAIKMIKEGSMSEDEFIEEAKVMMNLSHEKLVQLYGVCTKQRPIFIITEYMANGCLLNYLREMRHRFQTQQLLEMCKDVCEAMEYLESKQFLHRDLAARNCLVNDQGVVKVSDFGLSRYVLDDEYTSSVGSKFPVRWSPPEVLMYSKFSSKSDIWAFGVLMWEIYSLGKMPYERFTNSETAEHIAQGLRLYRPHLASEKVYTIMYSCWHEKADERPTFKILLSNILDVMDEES

C=CC(=O)N1CCC[C@@H](n2nc(C(=O)Nc3nc4ccccc4o3)c3c(N)ncnc32)C1.O=C(O)/C=C/C(=O)O [monofumarate of Compound A, (R)-1-(1-acryloylpiperidin-3-yl)-4-amino-N-(benzo[d]oxazol-2-yl)-1H-pyrazolo[3,4-d]pyrimidine-3-carboxamide.monofumarate]
Cmax relative to that of Compound A ([1]; 50 mg/kg): about two fold
AUC0-6 hr [1, 7]: 7.33 µM·h
Cmax [1, 7]: 7.63 µM
Tmax [1, 7]: 15 min
IC50 [2]: 1.19 nM
Weight change ratio, Adsorption ([3]; relative humidity 5%): 0.01%
Weight change ratio, Desorption ([3]; relative humidity 5%): 0.05%
Weight change ratio, Adsorption ([3]; relative humidity 20%): 0.14%
Weight change ratio, Desorption ([3]; relative humidity 20%): 0.17%
Weight change ratio, Adsorption ([3]; relative humidity 40%): 0.30%
Weight change ratio, Desorption ([3]; relative humidity 40%): 0.33%
Weight change ratio, Adsorption ([3]; relative humidity 60%): 0.37%
Weight change ratio, Desorption ([3]; relative humidity 60%): 0.41%
Weight change ratio, Adsorption ([3]; relative humidity 80%): 0.45%
Weight change ratio, Desorption ([3]; relative humidity 80%): 0.49%
Weight change ratio, Adsorption ([3]; relative humidity 95%): 0.60%
Weight change ratio, Desorption ([3]; relative humidity 95%): 0.60%
mass change (increase) ([3]; relative humidity of 95%): less than 1%
total mass of analogous substance ([4]; Opened): A (less than 0.1%)
total mass of analogous substance ([4]; Sealed): A (less than 0.1%)
solid stability (in words) ([4]; compared to hemitartrate or monophosphate): excellent solid stabilities
total mass of analogous substance ([5]; 60° C. (Sealed), 4 weeks): A (less than 0.1%)
solid stability (in words) ([5]; 60° C., compared to hemitartrate or monophosphate): excellent solid stabilities
BTK inhibition selectivity against EGFR kinase relative to Comparative compound 1 ([6]; in vitro kinase): about 13 times
EGFR inhibitory activity IC50 value (nM)/BTK inhibitory activity IC50 value (nM) ([6]; selectivity ratio): 16.90
